By melting point is commonly meant the temperature, or range, at which the solid turns liquid.

As to `COC(=O)c1ccc(-c2ccc(-c3ccccc3)c(-c3ccc4c(c3)C(C)(C)CCC4(C)C)c2)cc1O`, the melting point is 134 to 136 °C.

For the molecule `O=C(Nc1n[nH]c(=S)s1)N[C@@H](Cc1c(F)c(F)c(F)c(F)c1F)C(=O)N1CCN(c2ccccn2)CC1`, the melting point fell in the range of 233 to 235 °C.

`CC(C)(C)c1noc(NS(=O)(=O)c2ccccc2)c1Br`: the melting point lay in the range of 108 to 109 °C.

For the molecule `COc1ccc2cccc(CCOS(=O)(=O)c3ccccc3)c2c1`, the melting point was in the range of 61.8 to 63 °C.

`O=C1Nc2ccccc2C(c2ccccc2)N1C1CCN(Cc2ccccc2)CC1` (configuration not stated) yielded a melting point of 199 to 200 °C.

`CN(Cc1cccc2c1C(=O)N(C1CCC(=O)NC1=O)C2=O)C(=O)NC1CCCCC1` (configuration not stated): the melting point is 243 to 245 °C.

Turning to `COc1cc(-c2ncc(C(F)(F)F)cc2F)c(F)cc1Cl`, the melting point lay within 79 to 80 °C.

`CS(=O)(=O)Nc1ccc(OCC2CCN(c3cc(N)ccn3)CC2)cc1`: the melting point fell in the range of 213 to 214 °C.

With `CCCCn1c(=O)c2c(NC)n[nH]c2n(Cc2ccc([N+](=O)[O-])cc2)c1=O`, the melting point fell in the range of 277 to 279 °C.

Molecule `Cc1oncc1C(=O)c1ccc(C(F)(F)F)cc1[N+](=O)[O-]` showed a melting point of 85 to 86 °C.

For the molecule `COC(=O)Cn1c(SCc2nccc(SCCN3CCOCC3)c2C)nc2ccccc21`, the melting point is 128 to 129 °C.

Regarding `CN1C(=O)C2CC(c3ccc(N)cc3)(C2)C1=O`, the melting point fell in the range of 197 to 198 °C.

`O=C(Cl)c1ccc2c(c1)C(C(F)(F)F)(C(F)(F)F)c1cc(C(=O)Cl)ccc1O2` had a melting point of 216 to 218 °C.

With `C=CCCC(C#N)(C#N)Cc1ccc(OC(F)(F)C(F)F)cc1`, the melting point came to 60.5 °C.

`CCOC(=O)C1=C(C)NC(CO)=C(C(=O)OCC)C1c1ccccc1/C=C/C(=O)OC(C)(C)C` (configuration not stated) had a melting point of 163 to 164 °C.

Molecule `CCOC(=O)CC1CN=C(c2cc3cccc(N(C)S(=O)(=O)c4cccs4)c3[nH]2)S1` (configuration not stated) yielded a melting point of 101 to 102 °C.

Molecule `Cc1cc(=O)c(C(=O)O)c(C)n1C1CC(C)(C)NC(C)(C)C1` yielded a melting point of 174 °C.

Consider `O=S1(=O)N=CN(C2CC2)c2ccc(C(F)(F)F)cc21`, for which the melting point fell in the range of 160 to 162 °C.

For the molecule `O[C@H]1CCCN[C@H]1c1ccccc1` (relative stereo), the melting point is 93 to 95 °C.

`CCCCCC(NS(=O)(=O)c1ccc(Cl)cc1)c1ccc(CCCC(=O)O)cc1` (single isomer, unassigned; (-)): the melting point was in the range of 134 to 137 °C.

Consider `CCc1nn(-c2ccc(F)cc2)c2c1C(C)N(C)C2=O` (configuration not stated), for which the melting point is 65 °C.

Regarding `Cc1c(C(=O)Nc2ccc(SCCCN3CCCCC3)c(C#N)c2)cnn1-c1ccc(Cl)cc1`, the melting point stood at 142 °C.

`COc1cc(C(F)(F)F)nn1-c1ccc(NC(=O)c2cccnc2F)cc1` registered a melting point of 153 to 154 °C.

As for `NCCCCc1ccc(C2=NNC(=O)CC2)cc1`, the melting point was in the range of 167 to 168 °C.

The molecule `COC(=O)C(CCSC)NC(=O)c1ccc(NC(=O)Cc2cn(C)cn2)cc1-c1ccccc1` (configuration not stated) showed a melting point of 69 to 70 °C.

`CC(C)(C)OC(=O)N1CCN(CC(=O)O)CC1` registered a melting point of 195 to 197 °C.

Consider `COc1ccc(NC(=O)c2ccc(F)c(F)c2)cc1NS(=O)(=O)c1ccc(C#N)cc1`, for which the melting point lay in the range of 255 to 257 °C.

The molecule `O=C(O)CS(=O)c1ccc2c(-c3ccccc3F)noc2c1` (configuration not stated) showed a melting point of 165 to 166 °C.

Molecule `O=C(NC(CCCl)c1ccccc1Br)c1c(F)cccc1F` (configuration not stated) yielded a melting point of 183 to 185 °C.

For the molecule `COc1ccc(C2Sc3cc(Oc4cccc(C)c4)ccc3NC(=O)C2O)cc1` (configuration not stated), the melting point was in the range of 201 to 202 °C.

On to `N=C(N)c1ccc2c(c1)N(CC(=O)c1ccc(Br)cc1)C(=O)CN2`, for which the melting point is 145 to 150 °C.

Regarding `Cc1ccc(C2C=C3C(=CCC4=C3NN(C)CC4)S2=O)cc1` (configuration not stated), the melting point was 160 to 162 °C.

Consider `CCCCc1oc2ccccc2c1C(O)c1ccc(-c2cc(Br)c(O)c(Br)c2)cc1` (configuration not stated), for which the melting point lay within 60 to 62 °C.

`Cc1ccc(S(=O)(=O)O[C@@H]2C[C@@H](CCl)N(S(=O)(=O)c3ccc(C)cc3)C2)cc1` displayed a melting point of 145 to 146 °C.

In turn, `CCCCc1oc2ccccc2c1C(=O)N(Cc1ccccc1)Cc1ccc2c(Br)c(OCC#N)ccc2c1` came in with a melting point of 105 to 110 °C.

For the molecule `COc1cc(OC)c(OC)cc1C=CC=O`, the melting point came out at 140 °C.

In turn, `C#CCSc1ccccc1C=CCN(O)C(N)=O` had a melting point of 141 to 142 °C.

For the molecule `CNS(=O)(=O)c1cccc(-c2ccc3cccc(N4CCN(C)CC4)c3c2)c1`, the melting point was found to be 148 °C.

On to `CC(C)(OCc1nn(Cc2ccccc2)c2ccc(Br)cc12)C(=O)O`, for which the melting point was in the range of 168 to 170 °C.

`Cc1ccc(C#Cc2cnc(-c3ccc(C(F)(F)F)cc3)s2)s1` returned a melting point of 107 to 108 °C.

For `Nc1ccc(Br)cc1CO`, the melting point was 107 to 110 °C.

Molecule `CCOC(=O)N1C(=S)NC(C)=C(C(=O)OC(C)C)C1c1cccc([N+](=O)[O-])c1` (single isomer, unassigned; (-)) gave a melting point of 120 to 122 °C.

`[O-][N+]1=C(c2ccccc2Cl)c2nc(Cl)ccc2-n2cnnc2C1` registered a melting point of 242 to 244 °C.

The molecule `CNc1nc2ccccc2c(-c2ccccc2)c1C(=O)N(C)Cc1cc(C(F)(F)F)cc(C(F)(F)F)c1` yielded a melting point of 173 to 174 °C.

Consider `CC(C)Cn1c(=O)n(C)c(=O)c2c(SCCCO)c(Cc3cccc(F)c3)sc21`, for which the melting point fell in the range of 99 to 100 °C.

In turn, `Cc1c(C(=O)OCc2ccccc2)[nH]c2cc3c(sc4ccccc43)c(C)c12` came in with a melting point of 203 to 204 °C.

Take `Cc1[nH]cnc1CC1CCc2c(c3ccccc3n2C)C1=O` (single isomer, unassigned; (+)): the melting point lay within 230 to 232 °C.

In the case of `COc1cc(C(C)=O)ccc1OCCCCN1CCN(c2n[nH]c3cc(F)ccc23)CC1`, the melting point lay in the range of 156 to 158 °C.

Molecule `Cc1cc(Cn2[nH]c(N)cc2=O)ccc1Cl` came in with a melting point of 131 °C.

`O=C(C=Cc1ccccc1F)C=Cc1ccccc1F`: the melting point fell in the range of 68 to 72 °C.

With `Cc1ccc(NC(=O)c2cc(Cl)c(O)c(Cl)c2)c(O)c1`, the melting point is 246 to 247 °C.

For the molecule `O=C1c2c(Cl)c(Cl)c(Cl)c(Cl)c2C(=O)N1c1ccccc1`, the melting point lay in the range of 251 to 253 °C.

`CCCCN(CCCC)c1ccc(C=Cc2ccc(C(C#N)=C(C#N)C#N)s2)c(OCc2ccccc2)c1` displayed a melting point of 125 to 130 °C.

`COC(=O)c1nn(S(=O)(=O)c2ccc(C)cc2)c2ccccc12` registered a melting point of 163 to 165 °C.

In turn, `NC(=S)N(c1ccsc1-c1nc(C2CC2)no1)C1CN2CCC1CC2` (configuration not stated) showed a melting point of 155 to 157 °C.

For the molecule `CSc1ccc(-c2cc(=O)nc(N)o2)cc1`, the melting point fell in the range of 266 to 267 °C.

Consider `CC(c1ccc2c(c1)C(=O)c1ccccc1C2=O)N1CCN(C)CC1` (configuration not stated), for which the melting point lay within 98.9 to 102 °C.

In turn, `CCSc1nc(=O)[nH]cc1C` showed a melting point of 181 to 184 °C.

For the molecule `COC(c1ccc(C)cc1)c1ccccc1Br` (configuration not stated), the melting point fell in the range of 98 to 99 °C.

`CC(C)(C)C(=O)C(CC(=O)c1ccc(Cl)cc1)n1cncn1` (configuration not stated) came in with a melting point of 116 to 119 °C.

With `COc1c(-c2ccc(O)c(O)c2)oc2cc(O)ccc2c1=O`, the melting point worked out at 281 °C.

`O=C(c1ccc(-c2ccc(Cl)cc2)o1)C1CC1` registered a melting point of 88 to 89 °C.
